Measured values published in ChEMBL document CHEMBL4229455, “Synthesis and anticancer activity of novel bisindolylhydroxymaleimide derivatives with potent GSK-3 kinase inhibition” (Bioorg Med Chem, 2018).

What was measured:
Format in all cases: functional
786-0 = test: Cytotoxicity against human 786-O cells assessed as cell growth at 0.1 uM after 48 hrs by SRB assay relative to control; conditions: 786-0, 48 h, read-out: Activity
U-251 [1] = test: Cytotoxicity against human U251 cells assessed as cell growth at 1 uM after 48 hrs by SRB assay relative to control; conditions: U-251, 48 h, read-out: Activity
T47D = test: Cytotoxicity against human T47D cells assessed as cell growth at 0.01 uM after 48 hrs by SRB assay relative to control; conditions: read-out: Activity
ACHN [2] = test: Cytotoxicity against human ACHN cells assessed as cell growth at 0.01 uM after 48 hrs by SRB assay relative to control; conditions: read-out: Activity
NCI-H322M [3] = test: Cytotoxicity against human NCI-H322M cells assessed as cell growth at 0.01 uM after 48 hrs by SRB assay relative to control; conditions: read-out: Activity
SK-OV-3 [4] = test: Cytotoxicity against human SKOV3 cells assessed as cell growth at 1 uM after 48 hrs by SRB assay relative to control; conditions: SK-OV-3, 48 h, read-out: Activity
MDA-MB-468 = test: Cytotoxicity against human MDA-MB-468 cells assessed as cell growth at 0.01 uM after 48 hrs by SRB assay relative to control; conditions: MDA-MB-468, 48 h, read-out: Activity
NCI-H322M [5] = test: Cytotoxicity against human NCI-H322M cells assessed as cell growth at 100 uM after 48 hrs by SRB assay relative to control; conditions: read-out: Activity
SF-268 = test: Cytotoxicity against human SF268 cells assessed as cell growth at 1 uM after 48 hrs by SRB assay relative to control; conditions: SF-268, 48 h, read-out: Activity
NCI-H322M [6] = test: Cytotoxicity against human NCI-H322M cells after 48 hrs by SRB assay
SNB-19 = test: Cytotoxicity against human SNB19 cells assessed as cell growth at 0.1 uM after 48 hrs by SRB assay relative to control; conditions: SNB-19, 48 h, read-out: Activity
BT-549 = test: Cytotoxicity against human BT549 cells after 48 hrs by SRB assay; conditions: BT-549, 48 h
U-251 [7] = test: Cytotoxicity against human U251 cells assessed as cell growth at 0.01 uM after 48 hrs by SRB assay relative to control; conditions: U-251, 48 h, read-out: Activity
HCC 2998 = test: Cytotoxicity against human HCC2998 cells assessed as cell growth at 0.01 uM after 48 hrs by SRB assay relative to control; conditions: HCC 2998, 48 h, read-out: Activity
ACHN [8] = test: Cytotoxicity against human ACHN cells assessed as cell growth at 100 uM after 48 hrs by SRB assay relative to control; conditions: read-out: Activity
NCI-H322M [9] = test: Cytotoxicity against human NCI-H322M cells assessed as cell growth at 1 uM after 48 hrs by SRB assay relative to control; conditions: read-out: Activity
U-251 [10] = test: Cytotoxicity against human U251 cells assessed as cell growth at 100 uM after 48 hrs by SRB assay relative to control; conditions: U-251, 48 h, read-out: Activity
NCI-H23 = test: Cytotoxicity against human NCI-H23 cells assessed as cell growth at 100 uM after 48 hrs by SRB assay relative to control; conditions: NCI-H23, 48 h, read-out: Activity
NCI-H322M [11] = test: Cytotoxicity against human NCI-H322M cells assessed as cell growth at 0.1 uM after 48 hrs by SRB assay relative to control; conditions: read-out: Activity
SK-MEL-5 [12] = test: Cytotoxicity against human SK-MEL-5 cells assessed as cell growth at 100 uM after 48 hrs by SRB assay relative to control; conditions: SK-MEL-5, 48 h, read-out: Activity
Malme-3M = test: Cytotoxicity against human MALME-3M cells assessed as cell growth at 0.1 uM after 48 hrs by SRB assay relative to control; conditions: read-out: Activity
SF-539 = test: Cytotoxicity against human SF539 cells assessed as cell growth at 0.01 uM after 48 hrs by SRB assay relative to control; conditions: SF-539, 48 h, read-out: Activity
U-251 [13] = test: Cytotoxicity against human U251 cells after 48 hrs by SRB assay; conditions: U-251, 48 h
SK-MEL-5 [14] = test: Cytotoxicity against human SK-MEL-5 cells assessed as cell growth at 1 uM after 48 hrs by SRB assay relative to control; conditions: SK-MEL-5, 48 h, read-out: Activity
U-251 [15] = test: Cytotoxicity against human U251 cells assessed as cell growth at 0.1 uM after 48 hrs by SRB assay relative to control; conditions: U-251, 48 h, read-out: Activity
EKVX [16] = test: Cytotoxicity against human EKVX cells assessed as cell growth at 1 uM after 48 hrs by SRB assay relative to control; conditions: read-out: Activity
EKVX [17] = test: Cytotoxicity against human EKVX cells assessed as cell growth at 100 uM after 48 hrs by SRB assay relative to control; conditions: read-out: Activity
OVCAR-4 [18] = test: Cytotoxicity against human OVCAR4 cells assessed as cell growth at 0.1 uM after 48 hrs by SRB assay relative to control; conditions: OVCAR-4, 48 h, read-out: Activity
OVCAR-4 [19] = test: Cytotoxicity against human OVCAR4 cells after 48 hrs by SRB assay; conditions: OVCAR-4, 48 h
OVCAR-4 [20] = test: Cytotoxicity against human OVCAR4 cells assessed as cell growth at 100 uM after 48 hrs by SRB assay relative to control; conditions: OVCAR-4, 48 h, read-out: Activity
SK-OV-3 [21] = test: Cytotoxicity against human SKOV3 cells assessed as cell growth at 100 uM after 48 hrs by SRB assay relative to control; conditions: SK-OV-3, 48 h, read-out: Activity
OVCAR-4 [22] = test: Cytotoxicity against human OVCAR4 cells assessed as cell growth at 0.01 uM after 48 hrs by SRB assay relative to control; conditions: OVCAR-4, 48 h, read-out: Activity
EKVX [23] = test: Cytotoxicity against human EKVX cells assessed as cell growth at 0.1 uM after 48 hrs by SRB assay relative to control; conditions: read-out: Activity
OVCAR-4 [24] = test: Cytotoxicity against human OVCAR4 cells assessed as cell growth at 1 uM after 48 hrs by SRB assay relative to control; conditions: OVCAR-4, 48 h, read-out: Activity
EKVX [25] = test: Cytotoxicity against human EKVX cells assessed as cell growth at 0.01 uM after 48 hrs by SRB assay relative to control; conditions: read-out: Activity
EKVX [26] = test: Cytotoxicity against human EKVX cells after 48 hrs by SRB assay
[27] = read-out: LC50 (the source's name)

Work on `N#CCCCCCn1cc(C2=C(c3cn(CCCCCC#N)c4ccccc34)C(=O)N(O)C2=O)c2ccccc21` yielded a growth at 0.1 µM (786-0) of 101%, a growth at 1 µM (U-251 [1]) of 100% and a growth at 0.01 µM (T47D) of 99%. The growth at 0.01 µM (ACHN [2]) was 99%, the growth at 0.01 µM (NCI-H322M [3]) was 98% and the growth at 1 µM (SK-OV-3 [4]) was 86%. It also gave a growth at 0.01 µM (MDA-MB-468) of 106%, a growth at 100 µM (NCI-H322M [5]) of -4% and a growth at 1 µM (SF-268) of 99%. For the same molecule, the GI50 (NCI-H322M [6]) was 8.53 µM, the TGI (NCI-H322M [6]) was 84.6 µM and the CC50 (NCI-H322M [6]; [27]) was > 100 µM. The growth at 0.1 µM (SNB-19) was 95%, the GI50 (BT-549) was 3.44 µM and the LC50 (BT-549) was > 100 µM. The TGI (BT-549) was 24.5 µM, the growth at 0.01 µM (U-251 [7]) was 102% and the growth at 0.01 µM (HCC 2998) was 98%. It also gave a growth at 100 µM (ACHN [8]) of 4%, a growth at 1 µM (NCI-H322M [9]) of 100% and a growth at 100 µM (U-251 [10]) of 5%. The growth at 100 µM (NCI-H23) was 1%, the growth at 0.1 µM (NCI-H322M [11]) was 99% and the growth at 100 µM (SK-MEL-5 [12]) was -80%. It also gave a growth at 0.1 µM (Malme-3M) of 94%, a growth at 0.01 µM (SF-539) of 94% and a GI50 (U-251 [13]) of 4.65 µM. For the same molecule, the TGI (U-251 [13]) was > 100 µM, the CC50 (U-251 [13]; [27]) was > 100 µM and the growth at 1 µM (SK-MEL-5 [14]) was 92%. The growth at 0.1 µM (U-251 [15]) was 100%.
`Cn1cc(C2=C(c3cn(C)c4ncccc34)C(=O)NC2=O)c2ccccc21` was tested, and the growth at 0.1 µM (786-0) was 101%, the growth at 0.01 µM (T47D) was 89% and the growth at 0.01 µM (ACHN [2]) was 100%. It also gave a growth at 1 µM (SK-OV-3 [4]) of 77%, a growth at 1 µM (EKVX [16]) of 65% and a growth at 0.01 µM (MDA-MB-468) of 101%. The growth at 100 µM (EKVX [17]) was -42%, the growth at 1 µM (SF-268) was 101% and the growth at 0.1 µM (SNB-19) was 91%. It also gave a GI50 (BT-549) of 2.36 µM, a TGI (BT-549) of 8.09 µM and a growth at 0.01 µM (HCC 2998) of 103%. For the same molecule, the growth at 0.1 µM (OVCAR-4 [18]) was 87%, the GI50 (OVCAR-4 [19]) was 4.86 µM and the TGI (OVCAR-4 [19]) was 83.1 µM. The CC50 (OVCAR-4 [19]; [27]) was > 100 µM, the growth at 100 µM (OVCAR-4 [20]) was -3% and the growth at 100 µM (ACHN [8]) was -11%. The growth at 100 µM (SK-OV-3 [21]) was -7%, the growth at 100 µM (NCI-H23) was -40% and the growth at 0.01 µM (OVCAR-4 [22]) was 102%. It also gave a growth at 0.1 µM (EKVX [23]) of 84%, a growth at 100 µM (SK-MEL-5 [12]) of -94% and a growth at 0.1 µM (Malme-3M) of 112%. For the same molecule, the growth at 0.01 µM (SF-539) was 99%, the growth at 1 µM (OVCAR-4 [24]) was 85% and the growth at 0.01 µM (EKVX [25]) was 91%. The GI50 (EKVX [26]) was 1.83 µM, the TGI (EKVX [26]) was 15.1 µM and the CC50 (EKVX [26]; [27]) was > 100 µM. The growth at 1 µM (SK-MEL-5 [14]) was 89%.
